Data published in PubChem BioAssay AID179 (DTP/NCI, 2004).
Where “and” joins values, the source holds several entries; their conditions need not be identical. Identical values can stand only once. Calls of active or inactive are those of the source.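 Rule for the calls: active = compounds giving half or more protection of infected cells from virus-caused growth loss, again on retest; inactive = the rest.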 Where a SMILES comes first, the peptide text is derived from it. The star is where a group is joined. Boc = CC(C)(C)OC(=O)*

Tested on: CEM cells HIV-1 protection, formazan growth assay
Assay: NCI AIDS Antiviral Assay
Conditions: for IC50: measured here: growth of uninfected CEM cells
Method in brief: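 Soluble formazan readout of cell growth; CEM cells ± HIV-1; 5 drug concs. ≥50% protection → retest; ≥50% again = moderately active; reproducible 100% = confirmed active.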

Row | Structure (SMILES) | EC50 | IC50 | outcome
1 | COc1ccc(C(=O)N/N=C/c2c(C)n(C)n(-c3ccccc3)c2=O)cc1 | > 200 µM | > 200 µM | 
2 | Clc1ccccc1-c1nc2ccc(C34CC5CC(CC(C5)C3)C4)cc2[nH]1 | > 200 µM | 162 µM | 
3 | CC(=O)/C(N=Nc1ccc(-n2c(C)nc3ccc(Br)cc3c2=O)cc1)=C(/C)O | > 200 µM | 148 µM | 
4 | Cc1cccc(C2NC(=S)N3C(c4cccc(C)c4)NC(=S)N23)c1 (centres undefined) |  |  | inactive
5 | CCC[CH2][Sn]1([CH2]CCC)[O]N=Cc2ccccc2[O]1 | > 14.1 µM | 0.437 µM | 
6 | CCOC(=O)[C@@H]1ON2OC(OC3CCCC3(c3ccccc3)c3ccccc3)C(OC(C)=O)[C@H]3OC(=O)[C@@H]1C32 (some centres undefined) | > 200 µM | > 200 µM | 
7 | Cc1ccc(N=Nc2c(C)n(-c3ccc4scnc4c3)c(=S)n(-c3ccccc3)c2=O)cc1 | > 75.9 µM | > 75.9 µM | 
8 | O=C1C=C2CC3=CC(=O)C=C(CC4=CC(=O)C=C(CC5=CC(=O)C=C(CC(=C1)C2=O)C5=O)C4=O)C3=O | > 53.7 µM | 0.912 µM | 
9 | COC(=O)/C(C#N)=C1\NC(=O)CC(c2ccccc2)C1C#N (centres undefined) | > 200 µM | 57.5 µM | 
10 | CS(=O)(=O)N1CC(CCl)c2ccc(O)cc21 (centres undefined) | > 200 µM | 1.86 µM | 
11 | COC(=O)C(Cc1ccccc1)NC(=O)C(CS)NC(=O)OC(C)(C)C (stereo not drawn) (Boc-Cys-Phe-OMe; configuration not given here) | > 200 µM | 9.55 µM | 
12 | Cc1c(Cc2ccccc2)n(C(C)OCCN2C(=O)c3ccccc3C2=O)c(=O)[nH]c1=O (centres undefined) | > 200 µM | > 200 µM | 
13 | O=C(/C=C\c1ccccc1-c1ccccc1)c1ccccc1 | > 200 µM | > 200 µM | 
14 | CC(=O)/C(=C/n1c(=S)[nH]c2ccc([N+](=O)[O-])cc21)C(=O)Nc1ccc([N+](=O)[O-])cc1 | > 200 µM | 33.1 µM | 
15 | CCN(C(=S)N[C@@H](Cc1ccccc1)C(=O)N[C@@H](CC(C)C)C(=O)OC)c1ccccc1 | > 200 µM | 25.7 µM | 
16 | N#CCCN(C(=O)Nc1ccc(NC(=O)N(CCC#N)c2ccccc2)cc1)c1ccccc1 | > 200 µM | > 200 µM | 
17 | CCOC(=O)C(=O)Nc1c(C)cccc1C(C)(C)C | > 135 µM | > 135 µM | 
18 | Cc1ccnc2c1C(=O)C(=O)C=C2N1CCC(C)CC1 |  |  | inactive
19 | COc1cc2c(cc1OC)c1c(OC)c(OC)cc3c1c1c2sc(=S)n1CC3 |  |  | inactive
20 | OCC1O[C@H](O[C@@H]2CCCN3CC(O)C(O)[C@@H]23)C(O)C(O)C1O (some centres undefined) | > 1580 µM | > 1580 µM | 
21 | CCOC(=O)c1ccc(N(CC/C(CN)=N/NC(N)=O)C(C)=O)cc1 | > 646 µM | 363 µM | 
22 | N#C/C(=C\c1c(Cl)cccc1Cl)c1nc2ccccc2[nH]1 | > 200 µM | 24.5 µM | 

Row | Structure (SMILES) | EC50 | IC50 | outcome
23 | COc1nc2nc[nH]c2c(=O)[nH]1 |  |  | inactive
24 | CCOC(=O)C1(C(=O)OCC)NC(=O)CC1CC (centres undefined) |  |  | inactive
25 | Cn1c(=O)c2c(nc3n(CC(O)CCl)c(=O)ccn23)n(C)c1=O (centres undefined) | > 200 µM | 22.4 µM | 
26 | Cc1ccc(NC(=O)CSc2nnc(Cc3ccccc3)o2)cc1 | > 55 µM | > 55 µM | 
27 | Nc1nnc(-c2ccccc2S)o1 | > 63.1 µM | 26.9 µM | 
28 | COc1ccc(CC(=O)C2C(=O)N(C)c3ccccc32)cc1OC (centres undefined) | > 200 µM | 44.7 µM | 
29 | O=C(c1ccccc1)N1OCCC1Nc1ccc(Br)cc1 (centres undefined) |  |  | inactive
30 | Cc1ns/c(=N\C(=S)N(C)C)n1C |  |  | inactive
31 | Cc1cc2c(=O)cc(-c3cccs3)oc2c(C(=O)O)c1C |  |  | inactive
32 | CC1=NN(C(=O)c2ccc(O)cc2)C(=O)C1N=Nc1ccccc1C(=O)O (centres undefined) |  |  | inactive
33 | CCN=C(Nc1cccc(C2=NCCN2)c1)c1ccc(C(=NCC)Nc2cccc(C3=NCCN3)c2)cc1 | 145 µM | > 200 µM | 
34 | Cc1nccnc1N1CCCCC1 | > 200 µM | > 200 µM | 
35 | COc1ccc(/C=C(\C#N)c2ccc(Cl)cc2)cc1OC | > 200 µM | 174 µM | 
36 | O=C(N/C(=C\c1ccc(Br)cc1)c1nc2ccccc2[nH]1)c1ccccc1 | > 61.7 µM | 33.9 µM | 
37 | O=C(Nc1nc2ccccc2n1Cc1ccc(Cl)cc1)C(=O)NC12CC3CC(CC(C3)C1)C2 | > 21.4 µM | > 21.4 µM | 
38 | CCOC(=O)/C(C#N)=C/c1ccc(Cl)cc1 | > 110 µM | > 110 µM | 
39 | CCOC(=O)Nc1nc2c([N+](=O)[O-])c(Br)n(C)c2s1 |  |  | inactive
40 | NS(=O)(=O)c1nnc(NSc2ccc([N+](=O)[O-])cc2)s1 | > 200 µM | 46.8 µM | 
41 | S=C(N/N=C(/c1ccccc1)c1ccccn1)Nc1ccc(Cl)cc1 | > 0.2 µM | 0.123 µM | 
42 | Cc1c(-c2ccccc2)sc(/N=C/c2cc(Br)cc(Br)c2O)c1C#N | > 20 µM | 0.708 µM | 
43 | CCCCn1c(C)c2c(c1C)C(=O)N(CCN1CCN(c3ccccc3Cl)CC1)C2=O | > 200 µM | > 200 µM | 
44 | COc1cc(C(=O)C/C(CCC(=O)Nc2ccccc2[N+](=O)[O-])=N\NC(N)=O)ccc1O | > 562 µM | 525 µM | 

Row | Structure (SMILES) | EC50 | IC50 | outcome
45 | CC(C)=Cc1cc(C(=O)Nc2ccc(Cl)c(Cl)c2)nc(N)n1 | > 741 µM | 490 µM | 
46 | CCCCC(C)/C=C/C(=O)C1=C(O)/C(=C/C(=O)O)OC1=O (centres undefined) | 302 µM | 851 µM | 
47 | CC(C)c1ccc2c(c1)C=C1OC(=O)[C@]3(C)CCC[C@@]2(C)C13 (some centres undefined) | > 200 µM | 115 µM | 
48 | C/C(=N/NC(=S)Nc1cccc(Cl)c1)c1ccccn1 | > 0.2 µM | 0.0851 µM | 
49 | C=CCc1cccc2cc(C(=O)Nc3nc(C45CC6CC(CC(C6)C4)C5)cs3)c(=O)oc12 | > 100 µM | > 100 µM | 
50 | O=C(NC(CCCCN1C(=O)c2ccccc2C1=O)P(=O)(Oc1ccccc1)Oc1ccccc1)OCc1ccccc1 (centres undefined) | > 200 µM | 95.5 µM | 
51 | N#CC12C3C4C5C3C1n1c(=O)n(-c3ccccc3)c(=O)n1C5C42 (centres undefined) | > 200 µM | > 200 µM | 
52 | c1ccc([CH2][Sn]([CH2]c2ccccc2)([O]c2cccc3cccnc23)[O]c2cccc3cccnc23)cc1 |  |  | inactive
53 | CCCCNS(=O)(=O)c1ccc(-c2ccc3c(c2)-c2ccc(S(=O)(=O)NCCCC)cc2S3(=O)=O)cc1 | > 12.9 µM | > 12.9 µM | 
54 | CC(C)(C)[Si](C)(C)OC[C@H](CO)NC(=O)OCc1ccccc1 | > 200 µM | 38.9 µM | 
55 | CC(=O)Oc1ccc2c(c1)O/C(=C\c1ccc(N(C)C)cc1)C2=O | > 200 µM | 28.8 µM | 
56 | Cc1cc(S(=O)(=O)Nc2nnc3c4ccccc4ccn23)c(S)cc1Cl | 155 µM | > 200 µM | 
57 | C=CCC(NCc1ccccc1)[C@H](OCc1ccccc1)[C@@H]1COC(C)(C)O1 (some centres undefined) | > 200 µM | > 200 µM | 
58 | CN1CCc2cc3c4cc2C1Cc1ccc(cc1)Oc1cc(ccc1O)CC1c2c(cc(O)c(c2O4)O3)CCN1C (centres undefined) |  |  | inactive
59 | Cc1ccc(S(=O)(=O)N2CCCCCC2)cc1 | > 200 µM | > 100 µM | 
60 | COC[C@H]1c2cc(O)c(OCc3ccccc3)cc2O[C@@H]1c1ccc(OC)cc1 | > 200 µM | 19.5 µM | 
61 | O=c1oc2ccccc2c(O)c1/C=N/C(=S)NCc1ccccc1 | > 200 µM | > 200 µM | 
62 | CCOC(=O)c1c(N)nnc(-c2ccccc2)c1-c1ccccc1 | > 200 µM | 129 µM | 
63 | CSC1=NNC(SC)=NN1 | > 200 µM | 0.708 µM | 
64 | O=C(CN(Cc1ccccc1)Cc1ccccc1)N1CCc2c([nH]c3ccccc23)C1c1cccnc1 (centres undefined) | > 5.62 µM | > 5.62 µM | 
65 | COc1ccc2c(c1)OCCN(C)OC2c1cccc(Cl)c1 (centres undefined) | > 200 µM | 87.1 µM | 
66 | COc1cc(C2C(Cl)C(=O)N2NC(=O)c2ccc(NC(C)=O)cc2)cc(Br)c1O (centres undefined) | > 200 µM | 162 µM | 

Row | Structure (SMILES) | EC50 | IC50 | outcome
67 | CC(CCOc1c2ccoc2cc2oc(=O)ccc12)C1=CC(=O)C(C)(C)O1 (centres undefined) | > 200 µM | > 200 µM | 
68 | O=C(O)Cn1ccc(=O)c2ccc([N+](=O)[O-])cc21 | > 200 µM | > 200 µM | 
69 | CNC(=O)CN(CC(=O)O)C(=O)NC | > 1230 µM | > 1230 µM | 
70 | CCC(=O)OC1C(OC2C(C)C(OC3CC(C)(OC)C(O)C(C)O3)C(C)C(=O)OC(CC)C(C)(O)C(O)C(C)C(=O)C(C)CC2(C)O)OC(C)CC1N(C)C (centres undefined) | > 200 µM | 70.8 µM | 
71 | O=c1ccn(C2OC(CO)C(O)C2F)c(=O)n1Cc1ccccc1 (centres undefined) | > 200 µM | > 200 µM | 
72 | O=C1CCC2(c3ccc(F)cc3)Nc3ccc(Cl)cc3N12 (centres undefined) | > 61.7 µM | 45.7 µM | 
73 | CC(=O)NC1COC(COC(=O)CCCCCCCCCCNC(=O)c2ccc([N+](=O)[O-])c3c(=O)c4ccccc4[nH]c23)C(O)C1OC(C)C(=O)NC(C(=O)NC(CCC(N)=O)C(=O)OCc1ccccc1)C(C)C (centres undefined) | > 9.55 µM | > 9.55 µM | 
74 | CCOC(=O)C[C@@H](C)[C@]1(C(=O)OC)CCCC1=O | > 708 µM | > 708 µM | 
75 | CCOC(=O)c1sc2c(C(=O)OCC)c3ccccn3c2c1C |  |  | inactive
76 | O=c1[nH][nH]c(=O)c2c1[nH]c(=S)n2-c1ccccc1 | > 200 µM | > 200 µM | 
77 | CC1=CC2OC3CC(OC(=O)/C=C/C=C/C(OCCC4=CC(=O)OC4)C(C)O)C(C)(C2(CO)CC1)C31CO1 (centres undefined) | > 67.6 µM | 1.51 µM | 
78 | O=C1OC(=O)c2ccc3c4c(ccc1c24)C(=O)OC3=O | > 933 µM | > 933 µM | 
79 | O=C(/C=C/c1ccc2c(c1)OCO2)c1ccccc1 | > 200 µM | 7.08 µM and 11.2 µM | 
80 | CCOC(=O)/C(C=Nc1c(C)n(C)n(-c2ccccc2)c1=O)=C(/C)O | > 200 µM | > 200 µM | 
81 | CCOC(=O)c1sc2c(c1OC(=O)c1ccc(Cl)cc1Cl)c(=O)n(-c1ccccc1)c(=S)n2-c1ccccc1 | > 200 µM | 0.0871 µM | 
82 | Cc1c(Cl)cccc1NC(=O)C(=O)C(C(=O)c1ccccc1-c1ccccc1)C1OC(=O)c2ccccc21 (centres undefined) | > 69.2 µM | 26.3 µM | 
83 | C=CCn1c(-c2ccc([N+](=O)[O-])cc2)csc1=N | > 200 µM | 26.3 µM | 
84 | CCCCN(CCCC)C(=NCc1ccccc1)NC#N | > 100 µM | 17.4 µM | 
85 | COC(=O)c1nc(N)[nH]c(=O)c1-c1ccc(Cl)cc1 | 251 µM | 891 µM | 
86 | COc1ccc(Nc2nnc(-c3nsc4ccccc34)s2)cc1 | > 21.4 µM | > 21.4 µM | 
